Test results published in ChEMBL document CHEMBL6092199, “Naphthalen-1-ylethanamine-containing small molecule inhibitors of the papain-like protease of SARS-CoV-2” (Eur J Med Chem, 2024).
Active and inactive are the calls of the source. The rule behind the calls is not given here.

Assays:
SARS-CoV-2 [1] = assay: Antiviral activity against SARS-CoV-2 JPN/TY/WK-521 infected in Vero E6 cells assessed as reduction in viral RNA level incubated for 3 days by RT-qPCR analysis; format: functional, organism-based; conditions: Severe acute respiratory syndrome coronavirus 2, JPN/TY/WK-521, Vero C1008, 72 h
[2] = Cytotoxicity against african green monkey Vero E6 cells incubated for 3 days by CCK8 assay; format: toxicity, cell-based, Vero C1008; conditions: chlorocebus sabaeus, time 3 day
[3] = Inhibition of SARS-CoV-1 PL protease using (Z)-Arg-Leu-Arg-Gly-Gly-4-methyl-coumaryl-7-amide as substrate measured every 150 sec for 1 hr by multimode reader assay; set-up: species or system Severe acute respiratory syndrome-related coronavirus
[4] = Inhibition of SARS-CoV-1 PL protease using varying concentration of (Z)-Arg-Leu-Arg-Gly-Gly-4-methyl-coumaryl-7-amide as substrate by Dixon plot analysis; set-up: species or system Severe acute respiratory syndrome-related coronavirus
[5] = target: T1, Replicase polyprotein 1ab (Severe acute respiratory syndrome coronavirus 2, UniProt P0DTD1); assay: Inhibition of SARS-CoV-2 PL protease using varying concentration of (Z)-Arg-Leu-Arg-Gly-Gly-4-methyl-coumaryl-7-amide as substrate by Dixon plot analysis
[6] = target: T1, Replicase polyprotein 1ab; assay: Inhibition of SARS-CoV-2 PL protease using (Z)-Arg-Leu-Arg-Gly-Gly-4-methyl-coumaryl-7-amide as substrate and varying concentration of […] by Lineweaver-burk plot analysis
[7] = Inhibition of SARS-CoV-1 PL protease using (Z)-Arg-Leu-Arg-Gly-Gly-4-methyl-coumaryl-7-amide as substrate and varying concentration of […] by Lineweaver-burk plot analysis; set-up: species or system Severe acute respiratory syndrome-related coronavirus
[8] = target: T1, Replicase polyprotein 1ab; assay: Inhibition of SARS-CoV-2 PL protease using (Z)-Arg-Leu-Arg-Gly-Gly-4-methyl-coumaryl-7-amide as substrate measured every 150 sec for 1 hr by multimode reader assay
SARS-CoV-2 [9] = assay: Antiviral activity against SARS-CoV-2 JPN/TY/WK-521 infected in Vero E6 cells assessed as reduction in cytopathic effect at 1 to 100 uM pretreated with virus for 1 hr followed by viral washout and compound exposure for 3 days by immunocytochemistry analysis; format: functional, organism-based; conditions: Severe acute respiratory syndrome coronavirus 2, dose 1-100 µM, time 3.0 day

Row | SMILES | EC50 (SARS-CoV-2 [1]) [µM] | CC50 at 72 h [2] [µM] | also measured
1 | Cc1ccc(CNC(=O)c2ccc([N+](=O)[O-])cc2)cc1C(=O)N[C@H](C)c1cccc2ccccc12 | 40.3 | > 100 | 
2 | Cc1ccc(CNC(=O)OC(C)(C)C)cc1C(=O)N[C@H](C)c1cccc2cc3ccccc3cc12 | > 100 | > 100 | 
3 | Cc1ccc(CN)cc1C(=O)N[C@H](C)c1cccc2ccccc12 | 15.5 | > 100 | 
4 | Cc1ccc(CN)cc1C(=O)N[C@H](C)c1cccc2cc3ccccc3cc12 | 27.3 | 40.5 | 
5 | Cc1ccc(CNC(=O)c2ccccc2F)cc1C(=O)N[C@H](C)c1cccc2ccccc12 | 13.2 | > 100 | 
6 | Cc1ccc(CNC(=O)c2cc(C(F)(F)F)cc(C(F)(F)F)c2)cc1C(=O)N[C@H](C)c1cccc2ccccc12 | 72.8 | > 100 | 
7 | Cc1ccc(CNC(=O)c2c(F)cc(F)cc2F)cc1C(=O)N[C@H](C)c1cccc2ccccc12 | > 100 | > 100 | 
8 | Cc1ccc(CNC(=O)C(=O)O)cc1C(=O)N[C@H](C)c1cccc2ccccc12 | 2.7 | > 100 | IC50 [3]: 0.46 µM; Ki [4]: 0.18 µM; Ki [5]: 4.6 µM; Ki [6]: 4.4 µM; Ki [7]: 0.12 µM; IC50 [8]: 5.9 µM; Activity (SARS-CoV-2 [9]): Active
9 | Cc1ccc(CNC(=O)C(F)(F)F)cc1C(=O)N[C@H](C)c1cccc2ccccc12 | 30.3 | > 100 | 
10 | Cc1ccc(CNC(=O)c2ccccc2C(F)(F)F)cc1C(=O)N[C@H](C)c1cccc2ccccc12 | 27.4 | > 100 | 
11 | CCOC(=O)C(=O)NCc1ccc(C)c(C(=O)N[C@H](C)c2cccc3ccccc23)c1 | > 100 | > 100 | 
12 | Cc1ccc(CNC(=O)c2c(F)c(F)cc(F)c2F)cc1C(=O)N[C@H](C)c1cccc2ccccc12 | 44.8 | > 100 | 
13 | CC(=O)NCc1ccc(C)c(C(=O)N[C@H](C)c2cccc3ccccc23)c1 | > 100 | > 100 | 
14 | Cc1ccc(CNC(=O)c2ccc(C(F)(F)F)cc2F)cc1C(=O)N[C@H](C)c1cccc2ccccc12 | > 100 | > 100 | 
15 | Cc1ccc(CNC(=O)C(=O)O)cc1C(=O)N[C@H](C)c1cccc2cc3ccccc3cc12 | > 100 | > 100 | 
16 | Cc1ccc(CNC(=O)c2ccc(F)c(F)c2)cc1C(=O)N[C@H](C)c1cccc2cc3ccccc3cc12 | > 100 | > 100 | 
17 | Cc1ccc(CNC(=O)c2cc(F)c(F)cc2F)cc1C(=O)N[C@H](C)c1cccc2ccccc12 | > 100 | > 100 | 
18 | Cc1ccc(CNC(=O)c2ccc(C(C)(C)C)cc2)cc1C(=O)N[C@H](C)c1cccc2ccccc12 | 7.3 | 58.2 | IC50 [3]: 0.47 µM; Ki [4]: 0.54 µM; Ki [5]: 4.6 µM; Ki [6]: 4.1 µM; Ki [7]: 0.32 µM; IC50 [8]: 3.1 µM
19 | Cc1ccc(CNC(=O)c2cccc(C(F)(F)F)c2)cc1C(=O)N[C@H](C)c1cccc2ccccc12 | 15.7 | > 100 | 
20 | Cc1ccc(CNC(=O)c2cccc(F)c2)cc1C(=O)N[C@H](C)c1cccc2ccccc12 | 57.4 | > 100 | 

Row | SMILES | EC50 (SARS-CoV-2 [1]) [µM] | CC50 at 72 h [2] [µM] | also measured
21 | Cc1ccc(CNC(=O)c2ccc([N+](=O)[O-])c(F)c2)cc1C(=O)N[C@H](C)c1cccc2ccccc12 | 76.9 | > 100 | 
22 | Cc1ccc(C(=O)NCc2ccc(C)c(C(=O)N[C@H](C)c3cccc4ccccc34)c2)cc1 | > 100 | > 100 | 
23 | Cc1ccc(CNC(=O)c2cccc(C(F)(F)F)c2F)cc1C(=O)N[C@H](C)c1cccc2ccccc12 | 29.1 | > 100 | 
24 | Cc1ccc(CNC(=O)CC(F)(F)F)cc1C(=O)N[C@H](C)c1cccc2ccccc12 | 40.7 | > 100 | 
25 | Cc1ccc(CNC(=O)c2ccc(F)cc2C(F)(F)F)cc1C(=O)N[C@H](C)c1cccc2ccccc12 | > 100 | > 100 | 
26 | Cc1ccc(N)cc1C(=O)N[C@H](C)c1cccc2ccccc12 | 24.7 | > 100 | IC50 [3]: 0.05 µM; Ki [4]: 0.29 µM; Ki [7]: 0.12 µM
27 | CNCc1ccc(C)c(C(=O)N[C@H](C)c2cccc3ccccc23)c1 | 25.2 | > 100 | 
28 | Cc1ccc(CNC(=O)c2ccccc2[N+](=O)[O-])cc1C(=O)N[C@H](C)c1cccc2ccccc12 | 18.3 | 55.6 | 
29 | Cc1ccc(CNC(=O)C(C(F)(F)F)C(F)(F)F)cc1C(=O)N[C@H](C)c1cccc2ccccc12 | > 100 | > 100 | 
30 | Cc1ccc(CNC(=O)c2ccc(F)cc2F)cc1C(=O)N[C@H](C)c1cccc2ccccc12 | > 100 | > 100 | 
31 | Cc1ccc(CNC(=O)C(N)=O)cc1C(=O)N[C@H](C)c1cccc2ccccc12 | > 100 | > 100 | 
32 | Cc1ccc(CNC(=O)c2cccc(C(F)(F)F)c2C)cc1C(=O)N[C@H](C)c1cccc2ccccc12 | > 100 | > 100 | 
33 | Cc1ccc(CNC(=O)c2ccc(C(F)(F)F)c(F)c2)cc1C(=O)N[C@H](C)c1cccc2ccccc12 | > 100 | > 100 | 
34 | Cc1ccc(CNC(=O)c2ccc(F)cc2)cc1C(=O)N[C@H](C)c1cccc2ccccc12 | 25.7 | > 100 | 
35 | Cc1ccc(CNC(=O)c2ccc(F)c(F)c2)cc1C(=O)N[C@H](C)c1cccc2ccccc12 | 3.8 | > 100 | IC50 [3]: 0.3 µM; Ki [4]: 0.28 µM; Ki [5]: 5.3 µM; Ki [6]: 5.6 µM; Ki [7]: 0.16 µM; Activity (SARS-CoV-2 [9]): Active
36 | Cc1ccc(CNC(=O)c2cccc(F)c2F)cc1C(=O)N[C@H](C)c1cccc2ccccc12 | 52.3 | > 100 | 
37 | Cc1cccc(C(=O)NCc2ccc(C)c(C(=O)N[C@H](C)c3cccc4ccccc34)c2)c1 | 44 | > 100 | 
38 | Cc1ccc(CNC(=O)c2ccccc2)cc1C(=O)N[C@H](C)c1cccc2ccccc12 | 35.4 | > 100 | 
39 | Cc1ccc(CNC(=O)c2ccc(C(F)(F)F)cc2)cc1C(=O)N[C@H](C)c1cccc2ccccc12 | 18.7 | > 100 | 
40 | Cc1ccccc1C(=O)NCc1ccc(C)c(C(=O)N[C@H](C)c2cccc3ccccc23)c1 | 15.1 | > 100 | 
